Reference: article PMC9016704, “Dichlorophenylpyridine-Based Molecules Inhibit Furin through an Induced-Fit Mechanism” (ACS Chemical Biology, 2022)
Where two headings read alike, the source gives them in different places. Non-standard residues stand in square brackets, D forms with d. Residues, ends and D or L forms follow the SMILES beside them. *: point of attachment. AMC = Cc1cc(=O)oc2cc(N*)ccc12; pGlu = O=C1CC[C@@H](C(=O)O)N1

Key:
furin [1] = molecular target: T1, furin (Homo sapiens, UniProt P09958); test: Surface plasmon resonance binding to immobilized furin; conditions: for koff: read-out: koff Mean ± SD; for kon: read-out: kon Mean ± SD; for residence time: reciprocal of the mean koff, read-out: residence time τ
Experimental: As the (3,5-dichlorophenyl)pyridine derivatives bind tightly to furin, we used single-cycle kinetic experiments to determine their off-rates.[18] […]
SPR-experiments. 1, 3 and hexa-D-Arginine 14 were dissolved to a 10 mM stock solution in DMSO. This stock solution was initially diluted 100-fold in running buffer (10 mM HEPES pH 7.5, 100 mM NaCl, 2 mM CaCl2; 0.05% Tween; 1% DMSO) to a concentration of 100 µM and 1% DMSO. The stock solution in 1% DMSO was then further diluted in running buffer with […]
Furin was immobilized onto a NTA-chip after pre-loading with Ni2+ using standard procedures.
Immobilization levels of furin were in the range of 6000-6500 RU. Binding studies were performed with a Biacore T200 SPR system at 25°C in 10 mM HEPES pH 7.5, 100 mM NaCl, 2 mM CaCl2; 0.05% (v/v) Tween 20, and 1% (v/v) DMSO. Inhibitor 1 and 3 concentrations were […]
and 500 nM. Binding studies for 1 and 3 were performed in the single-cycle kinetic mode using […]
Target sequence in this assay (P09958 108-794): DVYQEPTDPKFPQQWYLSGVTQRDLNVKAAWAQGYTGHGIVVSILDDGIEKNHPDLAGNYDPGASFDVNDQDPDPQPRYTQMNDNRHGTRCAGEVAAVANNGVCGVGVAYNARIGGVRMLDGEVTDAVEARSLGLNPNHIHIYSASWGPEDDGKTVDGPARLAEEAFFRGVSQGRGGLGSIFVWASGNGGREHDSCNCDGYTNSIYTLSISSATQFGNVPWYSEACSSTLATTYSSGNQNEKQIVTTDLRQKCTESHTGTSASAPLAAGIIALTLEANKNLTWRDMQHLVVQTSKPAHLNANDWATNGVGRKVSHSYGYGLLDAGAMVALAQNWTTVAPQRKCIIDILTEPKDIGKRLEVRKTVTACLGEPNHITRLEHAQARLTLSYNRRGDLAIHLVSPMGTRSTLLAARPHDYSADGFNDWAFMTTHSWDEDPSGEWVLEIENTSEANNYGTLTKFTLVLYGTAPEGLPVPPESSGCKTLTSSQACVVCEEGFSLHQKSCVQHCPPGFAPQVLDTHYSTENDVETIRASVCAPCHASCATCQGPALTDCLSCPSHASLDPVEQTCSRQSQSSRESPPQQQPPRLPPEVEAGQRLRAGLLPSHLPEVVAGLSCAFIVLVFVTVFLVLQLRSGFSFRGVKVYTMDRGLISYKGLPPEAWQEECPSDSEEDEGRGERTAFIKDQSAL

[2] = tested on: Total TGFβ production in the lung; design: method as in earlier work; conditions: cited from earlier work; for Total TGFβ production in the lung reduced by: 10 mg/kg of body weight; for bioavailability: bleomycin-induced lung fibrosis mouse model
furin [3] = tested on: furin; design: method as in earlier work; conditions: enzyme kinetics measurements; cited from earlier work
furin [4] = molecular target: T1, furin; test: MALDI-TOF-MS-based furin activity assay, TGFβ-derived substrate; format: biochemical; design: made in house
Target sequence in this assay (P09958 108-574 limits assumed): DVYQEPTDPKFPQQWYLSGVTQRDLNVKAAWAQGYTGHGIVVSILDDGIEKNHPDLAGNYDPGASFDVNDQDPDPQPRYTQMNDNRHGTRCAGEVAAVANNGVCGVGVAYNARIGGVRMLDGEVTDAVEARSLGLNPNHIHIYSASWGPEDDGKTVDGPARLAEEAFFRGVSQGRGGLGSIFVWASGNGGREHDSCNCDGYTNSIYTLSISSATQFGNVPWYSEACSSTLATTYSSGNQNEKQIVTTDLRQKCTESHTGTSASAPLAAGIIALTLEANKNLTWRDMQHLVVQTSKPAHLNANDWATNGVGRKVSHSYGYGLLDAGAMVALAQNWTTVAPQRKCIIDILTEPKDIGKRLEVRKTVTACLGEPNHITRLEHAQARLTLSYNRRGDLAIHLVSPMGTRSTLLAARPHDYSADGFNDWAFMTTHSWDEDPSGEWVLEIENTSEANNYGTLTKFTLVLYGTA

furin [5] = molecular target: T1, furin; test: Protein thermostability measurement by nanoDSF; format: binding; design: made in house; conditions: for Tm #1 / Tm #2 / Tm Mean: furin-inhibitor complex; for Tm #1: replicate #1; for Tm #2: replicate #2; for Tm Mean: ligand-free furin 57.7 ± 0.1; for ΔTm: gain versus ligand-free furin
From the text: Interactions of inhibitors with furin increased the structural stability of the protease–inhibitor complexes compared with the ligand-free protease, which was indicated by an increase in the melting temperature (Tm).[23] We investigated the impact of the (3,5-dichlorophenyl)pyridine-based compounds on the structural stability of furin using differential scanning fluorimetry (nanoDSF[24]). […] The gain in Tm correlated well with the measured pIC50 (i.e., −log10(IC50)) values (Figure 2B), as reported for substrate-like inhibitors.[10],[25] […]
Protein thermostability measurement by nanoDSF. The thermostablity of furin-inhibitor complexes was further assessed by nanoDSF.16 In nanoDSF, protein unfolding was monitored by the change of the intrinsic fluorescence of the protein, mainly from tryptophan and tyrosine residues in the protein. 10 ul 0.2 mg mL-1 (3.8 µM) protein solutions (10mM Hepes/NaOH pH 7.5; 100 mM NaCl; 2 mM CaCl2) were loaded into nanoDSF grade standard capillaries (NanoTemper Technologies). The samples were heated up with a ramp rate of 1 °C min-1 over a temperature range of 20-95 °C. The thermal unfolding profiles of the proteins were recorded using the Prometheus NT.48 instrument (NanoTemper Technologies). Measurements were performed in duplicate. Unfolding transition temperatures (Tm) were automatically determined by the instrument software.
Target sequence in this assay (P09958 108-574 limits assumed): as above

furin [6] = molecular target: T1, furin; test: biochemical
Target sequence in this assay (P09958 108-794): as the sequence (P09958 108-794) above

furin [7] = tested on: furin; design: method as in earlier work; conditions: cell-based inhibition assays; cited from earlier work
furin [8] = tested on: furin; design: method as in PMID 10958789; conditions: read-out: IC50 (literature); cited from earlier work
furin [9] = molecular target: T1, furin; test: Enzyme kinetic assay with fluorogenic substrate pERTKR-AMC; format: biochemical; design: made in house
Experimental: To determine the inhibition mode for compound 1, we performed enzyme kinetic assays with the fluorogenic PC substrate pyr-ERTKR-7-amino-4-methylcoumarin (pERTKR-AMC).
Additionally, internal calibration was performed using the monoisotopic peak of the respective […]
MALDI-TOF data, processed with flexAnalysis or MALDI Pharma Pulse, were exported as a comma delimited (.csv) file. Datasets were further processed with either GraphPad Prism (v9.00; GraphPad Software, La Jolla, CA) or in-house laboratory information management system (LIMS) software. Furin activity was tracked by analyzing the measured intensity for the enzymatic product as well as for the corresponding internal standard. Average control values were calculated and set to 100% activity (high controls) and 0% activity (low controls) while the response values of compound-containing wells were normalized against the controls and expressed as percentage of control (PoC). Determination of compound potencies was obtained by fitting the dose-response data to a four-parameter logistical equation.
Enzyme kinetics. Enzyme kinetic measurements were performed in 100 mM HEPES pH 7.5, 1 mM CaCl2, 0.01% (w/v) BSA, 0.001% (v/v) Tween20 with the fluorogenic substrate pyr-ERTKR-7-amino-4-methylcoumarin (pERTKR-AMC, Bachem) and 0.5 nM furin at 24°C. The reactions (100 µl) were initiated by addition of the substrate in 96-well black half area plates (Corning), pre-incubated for 30 min at 24°C and measured for 40 min in a 96-well plate reader (Tecan Infinite 200) at excitation and emission wavelengths of 380 nm and 460 nm, respectively. The Km value of pERTKR-AMC with furin was determined with 1:2 serial dilution series of the substrate from 100 µM to 0.78 µM. To investigate the inhibition mode of 1 with furin, 1:2 serial inhibitor dilution series were prepared in the concentration range between 100 nM and 0.78 nM and the reaction velocity was determined in presence of 4.4 µM, 8.9 µM and 13.3 µM pERTKR-AMC. Enzyme kinetic data were evaluated with GraphPad Prism. Km was calculated with the prebuild “Michaelis-Menten” model. […]
Target sequence in this assay (P09958 108-574 limits assumed): as the sequence (P09958 108-574 limits assumed) above

[10] = 25°C, hexa-D-Arg: multicycle, poor curve fit, read-out: KD Mean ± SD
[11] = injected intraperitoneally, mice
[12] = TGFβ substrate, replicate #1, read-out: IC50 #1
[13] = TGFβ substrate, replicate #2, read-out: IC50 #2
[14] = TGFβ substrate, replicate #3, read-out: IC50 #3
[15] = TGFβ-derived substrate 2.5 µM, 0.02 nM furin, read-out: IC50 Mean ± SD

`CC(=O)NCC1CCN(Cc2cc(Oc3cnc(N4CCN(CCC(=O)O)CC4)nc3)nc(-c3cc(Cl)cc(Cl)c3)c2)CC1` [Inhibitor 3] gave a koff (furin [1]; 25°C, single-cycle kinetic) of 0.00031 s⁻¹, a kon (furin [1]; 25°C, single-cycle kinetic) of 96000 M⁻¹ s⁻¹ and a Kd (furin [1]; [10]) of 3.1 ± 1.6 nM. The residence time (furin [1]) was 53.7 min, the Kd (furin [1]; replicate #1, read-out: KD #1) was 2.76 nM and the Kd (furin [1]; replicate #2, read-out: KD #2) was 5.07 nM. For the same compound, the Kd (furin [1]; replicate #3, read-out: KD #3) was 1.31 nM, the “Total TGFβ production in the lung reduced by” value [2, 11] was 86% and the bioavailability ([2]; in words) was “comparably high”. The IC50 (furin [3]) was 0.16 nM, the IC50 (furin [4]; [12]) was 2 nM and the IC50 (furin [4]; [13]) was 2.3 nM. For the same compound, the IC50 (furin [4]; [14]) was 1.2 nM, the IC50 (furin [4]; [15]) was 1.8 nM and the “Tm #1” value (furin [5]) was 68.7 °C. For the same compound, the “Tm #2” value (furin [5]) was 68.5 °C, the “Tm Mean” value (furin [5]) was 68.6 °C and the ΔTm (furin [5]) was 10.9 °C. For the same compound, the IC50 (furin [6]; IC50 #1) was 0.5 nM, the IC50 (furin [6]; IC50 #2) was 1 nM and the IC50 (furin [6]; IC50 Mean) was 0.8 nM. The IC50 (furin [7]) was 10 nM.
For `CN1CCN(c2ncc(Oc3cc(CN4CCC(OCC(=O)O)C4)cc(-c4cc(Cl)cc(Cl)c4)n3)cn2)CC1` (centres unmarked) [Inhibitor 5], the IC50 (furin [3]) is given as 13 nM, the IC50 (furin [4]; [15]) is given as 78 nM and the “Tm #1” value (furin [5]) is given as 61.8 °C. For the same compound, the “Tm #2” value (furin [5]) was 61.8 °C, the “Tm Mean” value (furin [5]) was 61.8 °C and the ΔTm (furin [5]) was 4.0 °C. For the same compound, the IC50 (furin [7]) was 630 nM.
With `N=C(N)NCCC[C@@H](N)C(=O)N[C@H](CCCNC(=N)N)C(=O)N[C@H](CCCNC(=N)N)C(=O)N[C@H](CCCNC(=N)N)C(=O)N[C@H](CCCNC(=N)N)C(=O)N[C@H](CCCNC(=N)N)C(N)=O` [hexa-D-arginine, reference compound] the “koff Mean ± SD” value (furin [1]; 25°C, single-cycle kinetic) was “fast off-rate”, the Kd (furin [1]; [10]) was 530 ± 320 nM and the Kd (furin [1]; replicate #1, read-out: KD #1) was 437 nM. The Kd (furin [1]; replicate #2, read-out: KD #2) was 966 nM, the Kd (furin [1]; replicate #3, read-out: KD #3) was 200 nM and the IC50 (furin [8]) was 106 nM. It also gave an IC50 (furin [4]; IC50 #1, TGFβ substrate, replicate #1) of 207 nM, an IC50 (furin [4]; IC50 #2, TGFβ substrate, replicate #2) of 64.2 nM and an IC50 (furin [4]; IC50 #3, TGFβ substrate, replicate #3) of 184 nM. The IC50 (furin [4]; IC50 Mean ± SD, TGFβ-derived substrate 2.5 µM, 0.02 nM furin) was 152 ± 77 nM, the “Tm #1” value (furin [5]) was 59.3 °C and the “Tm #2” value (furin [5]) was 59.2 °C. The “Tm Mean” value (furin [5]) was 59.3 °C, the ΔTm (furin [5]) was 1.6 °C and the IC50 (furin [6]; IC50 Mean) was 126 nM.
`COCCN1CCN(c2ccc(Oc3cc(CN4CCC(CNC(C)=O)CC4)cc(-c4cc(Cl)cc(Cl)c4)n3)cn2)CC1` [Inhibitor 1] showed a koff (furin [1]; 25°C, single-cycle kinetic) of 0.00018 s⁻¹, a kon (furin [1]; 25°C, single-cycle kinetic) of 4600 ± 2500 M⁻¹ s⁻¹ and a Kd (furin [1]; [10]) of 28 ± 13 nM. The residence time (furin [1]) was 92 min, the “kon #1” value (furin [1]; replicate #1) was 4531 [Ms]-1 and the Kd (furin [1]; replicate #1, read-out: KD #1) was 48.7 nM. The “kon #2” value (furin [1]; replicate #2) was 3563 [Ms]-1, the Kd (furin [1]; replicate #2, read-out: KD #2) was 24.7 nM and the “kon #3” value (furin [1]; replicate #3) was 8463 [Ms]-1. The Kd (furin [1]; replicate #3, read-out: KD #3) was 26.1 nM, the inhibition mode (furin [9]; Dixon plot, pERTKR-AMC 4.4-13.3 μM) was “competitive” and the Ki (furin [9]; competitive model, pERTKR-AMC 4.4, 8.9 and 13.3 µM, 0.5 nM furin) was 3.8 ± 0.8 nM. The IC50 (furin [3]) was 1.3 nM, the IC50 (furin [4]; [12]) was 2.6 nM and the IC50 (furin [4]; [13]) was 2.4 nM. The IC50 (furin [4]; [14]) was 2 nM, the IC50 (furin [4]; [15]) was 2.3 nM and the “Tm #1” value (furin [5]) was 68.5 °C. For the same compound, the “Tm #2” value (furin [5]) was 68.4 °C, the “Tm Mean” value (furin [5]) was 68.4 °C and the ΔTm (furin [5]) was 10.8 °C. For the same compound, the IC50 (furin [6]; IC50 #1) was 1 nM, the IC50 (furin [6]; IC50 #2) was 1.1 nM and the IC50 (furin [7]) was 0.8 nM.
For “AQHLQSSRHRRALDTNY [TGFβ, peptide substrate surrogate derived from TGFβ]”, the Km (furin [4]; assay-specific apparent Km of the TGFβ-derived peptide substrate, read-out: Km,app) was 1.8 µM.
Compound `Cc1cc(=O)oc2cc(NC(=O)[C@H](CCCNC(=N)N)NC(=O)[C@H](CCCCN)NC(=O)[C@@H](NC(=O)[C@H](CCCNC(=N)N)NC(=O)[C@@H]3CCC(=O)N3)[C@@H](C)O)ccc12` [pERTKR-AMC, pyr-ERTKR-7-amino-4-methylcoumarin] ([pGlu]RTKR-{AMC}) has a Km (furin [9]; Km of substrate pERTKR-AMC with furin) of 9.6 µM.
In the case of `CC(=O)NCC1CCN(Cc2cc(Oc3ccc(N4CCN(CCC(=O)O)CC4)nc3)nc(-c3cc(Cl)cc(Cl)c3)c2)CC1` [Inhibitor 4], the “Total TGFβ production in the lung reduced by” value [2, 11] is given as 69%, the bioavailability ([2]; in words) is given as “comparably high” and the IC50 (furin [3]) is given as 0.25 nM. For the same compound, the IC50 (furin [4]; [15]) was 2.6 nM, the “Tm #1” value (furin [5]) was 68.3 °C and the “Tm #2” value (furin [5]) was 68.2 °C. For the same compound, the “Tm Mean” value (furin [5]) was 68.3 °C, the ΔTm (furin [5]) was 10.5 °C and the IC50 (furin [7]) was 25.1 nM.
For `CC(=O)NCC1CCN(Cc2cc(Oc3cnc(N4CCN(CCC(C)C(=O)O)CC4)nc3)nc(-c3cc(Cl)cc(Cl)c3)c2)CC1` (centres unmarked) [Inhibitor 2], the “Total TGFβ production in the lung reduced by” value ([2]; oral, mice) is given as 75%, the bioavailability ([2]; in words) is given as “comparably high” and the oral availability ([2]; mice, in words) is given as “orally available”. The IC50 (furin [3]) was 0.5 nM, the IC50 (furin [4]; [15]) was 1.3 nM and the “Tm #1” value (furin [5]) was 69.4 °C. For the same compound, the “Tm #2” value (furin [5]) was 69.2 °C, the “Tm Mean” value (furin [5]) was 69.3 °C and the ΔTm (furin [5]) was 11.6 °C. The IC50 (furin [7]) was 5 nM.
